Data published in patent publication US9809622B2, “Tumor-targeting polypeptide and application thereof” (Sun Yat-sen University Cancer Center, priority 2013, dated 2017).
Positions of bridges follow the written chain, without caps; N, C: chain ends. Non-standard residues stand in square brackets, D forms with d. Residues, ends and D or L forms follow the SMILES beside them. No end group written: not given here. *: point of attachment. Biotin = O=C1N[C@H]2[C@H](CS[C@H]2CCCCC(=O)*)N1

Legend:
HONE1 = assay: Apoptosis by Cleaved Caspase 3/7 kit, flow cytometry; type: cell-based; conditions: FIG. 6B
Procedure: (§1) Therapeutic effects of 35-AP peptide were assessed by Cleaved Caspase 3/7 kit. Detailed steps were as followed: • 1) After the cells were planked for 24 hours, the peptide dissolved by 1640 was incubated with cells at 37° C. for four hours; • 2) Trypsinizing cells with TrypLE Expression, counting and adjusting the concentration to 1.0*10^6 cells/ml, and transferring 300 μl into flow cytometry tube; • 3) Adding 10 μl 30*FLICA working solution; • 4) Incubating the cells at 37° C. with 5% CO2 for one hour, and mixing once every 15 minutes; • 5) Washing with 2 ml Washing buffer, then centrifuging at 400 g force for 5 minutes; • 6) Re-suspending the precipitate with 1 ml Washing buffer; • 7) Detecting the staining signal using flow cytometer.

CNE1 = assay: as above; type: cell-based; conditions: FIG. 6B
Procedure: as §1

SUNE1 = assay: as above; type: cell-based; conditions: FIG. 6B
Procedure: as §1

5-8F = assay: as above; type: cell-based; conditions: FIG. 6B
Procedure: as §1

CNE2 [1] = assay: as above; type: cell-based; conditions: FIG. 6A
Procedure: as §1

CNE2 cells [2] = assay: Therapeutic effect of 35-AP peptide in tumor-bearing mice; type: in vivo, BALB/C nude mice; conditions: 200 μg intravenously every other day 6 times, compared with two control groups, FIG. 6E
Procedure: Injecting 35-AP peptide to tumor-bearing mice to detect its therapeutic effect. Detailed steps were as follows: • 1) Selecting twenty four 4-week-old BALB/C nude mice; • 2) Trypsinizing CNE2 cells, counting and adjusting the concentration to 1.0*10^6 cells/ml, and re-suspending cells with 200 μl RPMI 1640 medium containing 20% Matrigel, then subcutaneously injecting 200 μl re-suspended cells into the nude mice; • 3) Observing and measuring the size of tumor after 1-2 weeks. Based on the tumor size, the mice were randomly divided into three groups (PBS, Control AP and 35-AP); • 4) Intravenously injecting 200 μl PBS or 200 μg fluorescence peptide dissolved in 200 μl PBS every other day for 6 times in total. Measuring the length and width of tumor before and after injection. The volume of tumor=0.52*(length*width*width); • 5) Performing statistical analysis of the size of tumors.

CNE2 [3] = assay: Cleaved Caspase3 cellular immunofluorescence assay; type: cell-based; conditions: incubated with CNE2; FIG. 6C
CNE2 cells [4] = conditions: 37° C. two hours
Procedure: The cellular immunofluorescence assay was applied to detect whether Biotin-35 peptide can penetrate CNE2 cells. Detailed steps were as followed: • 1) Incubating Biotin-35 peptide or Biotin-control peptide with cells at 37° C. for two hours; • 2) Washing three times with 1 ml PBS for 5 minutes; • 3) Fixing the cells with 4% paraformaldehyde for 10 minutes; • 4) Incubating cells with 0.1% Triton-X100 for 5 minutes; • 5) Blocking with 5% BSA for 30 minutes; • 6) Washing with 1 ml PBS twice; • 7) Adding FITC-streptavidin and avoiding light for one hour; • 8) Washing three times with 1 ml PBS for 5 minutes; • 9) Adding DAPI at a ratio of 1:2000 and keeping it away from light at room temperature for 5 minutes, • 10) Washing with 1 ml PBS for 5 minutes, • 11) Mounting samples with Anti-fade, and observing the samples under the laser confocal microscope.

[5] = system: nasopharyngeal carcinoma cell line, CNE2; assay: Blocking test in phage counting assay (35 peptide blocks phage 35 binding); type: cell-based; conditions: FIG. 1B
Procedure: The phage counting assay was conducted to first test the binding ability of phage 35 to nasopharyngeal carcinoma cell line, CNE2 and then test whether the 35 peptide can block the binding of the phage 35 to CNE2. The process will be described in detail hereinafter. • 1) Trypsinizing cells, counting to obtain 1.0*10^6 cells/tube, and re-suspending cells with 200 μl RPMI (Roswell Park Memorial Institute) 1640 medium; • 2) For the blocking test, adding the 35 peptide at a corresponding concentration and incubating on ice for 30 minutes (the binding assay skips this step and directly goes to the third step); • 3) Adding 1.0*10^8 phages, and incubating on ice for binding for one hour; • 4) After washing with 1 ml PBS (Phosphate Buffered Saline), the resulting products were centrifuged at 400 g force for 5 min; repeating this step three times; • 5) Re-suspending the precipitate with 1 ml TBS (Tris Buffered Saline), diluting the resulting suspension liquid 10^3-10^4 fold, and only taking 100 μl for phage count assay; • 6) Inoculating BL21 competent cell for T7 phage with 1:100 v/v, then shaking at 200 RPM at 37° C. for four hours until OD600 (Optical Density at a wavelength of 600 nm) reaches 0.5-1.0 when the bacteria are on the logarithmic phase. […] The titer of phage was calculated based on the diluted factors.

MDA-MB-231 = assay: Near-infrared fluorescence imaging in MDA-MB-231 nude mice model; type: in vivo; conditions: FIG. 4D
Procedure: (§2) Cy5-35 peptide distribution was examined in the different organs and tumors of nude mice. Small animal imaging assay was operated as followed: • 1) Using nine 4-week-old BALB/C nude mice; • 2) Trypsinizing cells, counting and adjusting the concentration to 1.0*10^6 cells/ml, and re-suspending cells with 200 μl RPMI 1640 medium containing 20% Matrigel, then subcutaneously injecting into the nude mice; • 3) Observing and measuring the size of tumor after 1-2 weeks. Based on the tumor size, the mice were randomly divided into three groups (PBS, Cy5-Control and Cy5-35, 3 mice in each group); • 4) Intravenously injecting 200 μl PBS or 300 μg fluorescence peptide dissolved in 200 μl PBS; the peptide distribution is detected in both normal organs and tumor using Caliper IVIS Lumina II; • 5) Obtaining normal organs and the tumor tissues, homogenizing them, and calculating the fluorescence intensity of normal organs and the tumor for statistical analysis.
To detect whether Cy5-35 peptide can apply to other tumors, the peptides were applied to MDA-MB-231 nude mice model.

[6] = system: nasopharyngeal carcinoma cell CNE2; assay: Flow cytometry analysis of binding of Cy5-35 peptide; type: cell-based; conditions: 5 μM or 10 μM, on ice 30 minutes; FIG. 1C
Procedure: Flow cytometry analysis was applied to detect the binding affinity of Cy5-35 peptide to nasopharyngeal carcinoma cell CNE2. Firstly, the 35 peptide and control peptides separately coupled with fluorescent dye Cy5 were synthesized. Then, Cy5-35 peptide were incubated with cells. At the end, the binding efficacy was calculated using the flow cytometry analysis. Detailed steps were as followed: • 1) Trypsinizing cells, counting and adjusting the concentration to 1.0*10^6 cells/tube, and re-suspending cells with 200 μl RPMI 1640 medium; • 2) Adding Cy5-Control peptide or Cy5-35 peptide dissolved with PBS at a concentration of 5 μM or 10 μM, then incubating on ice for 30 minutes. • 3) Washing with 1 ml PBS, then centrifuging at 400 g force for 5 minutes; repeating this step twice; • 4) Re-suspending the precipitate with 1 ml TBS, • 5) Conducting the flow cytometry analysis.

[7] = system: nasopharyngeal carcinoma cells CNE2; assay: Flow cytometry analysis of cell penetration; type: cell-based; conditions: 37° C. two hours; FIG. 2B
Text: The flow cytometry analysis was applied to detect whether phage 35 can penetrate the nasopharyngeal carcinoma cells CNE2.

nasopharyngeal carcinoma = assay: Near-infrared fluorescence imaging of tumor, small animal imaging; type: in vivo, BALB/C nude mice; conditions: 24 hours after intravenous injection
Procedure: as §2

[8] = system: tumor vessels and tumor cells; assay: Targeting and penetrating tumor vessels and tumor cells, frozen section and immunohistochemical assay; type: in vivo, BALB/C nude mice; conditions: 300 μg
Procedure: Cy5-35 peptide is tested to target and penetrate the vessels using the frozen section and immunohistochemical assay. Detailed steps were as followed: • 1) Using nine 4-week-old BALB/C nude mice • 2) Trypsinizing cells, counting and adjusting the concentration to 1.0*10^6 cells/ml, and re-suspending cells with 200 μl RPMI 1640 medium containing 20% Matrigel, then subcutaneously injecting into the nude mice; • 3) Observing and measuring the size of tumor after 1-2 weeks. Based on the tumor size, the mice were randomly divided into three groups (PBS, Cy5-Control and Cy5-35, three mice in each group); • 4) Intravenously injecting 200 μl PBS or 300 μg fluorescence peptide dissolved in 200 μl PBS; • 5) Obtaining the tumor tissues, and making frozen sections and cutting slides, storing at −80° C.; • 6) Fixing the slides in cooled acetone for 10 min, washing 5 times with PBS for 5 minutes; • 7) Soaking the slides with 3% H2O2 to remove endogenous peroxidase and then washing 3 times with 1 ml PBS for 5 minutes; • 8) Blocking with 10% BSA for 20 minutes at room temperature; • 9) Incubating with anti-CD31 mouse first antibody at 4° C. overnight; • 10) Washing 3 times with PBS for 5 minutes; • 11) Incubating anti-mouse FITC second antibody at room temperature for one hour, keeping it away from light, and then washing 3 times with 1 ml PBS for 5 min; • 12) Adding DAPI at room temperature and keeping for 5 minutes and then washing 3 times with 1 ml PBS for 5 minutes; • 13) Covering the slides with anti-fade, then observing the slides under the laser confocal microscope

[9] = 2 h after intravenous injection, FIG. 3B

CC(C)C[C@@H](NC(=O)[C@H](N)CCCCN)C(=O)N[C@H](C)C(=O)N[C@H](CCCCN)C(=O)N[C@H](CC(C)C)C(=O)N[C@H](C)C(=O)N[C@H](CCCCN)C(=O)N[C@H](CCCCN)C(=O)N[C@H](CC(C)C)C(=O)N[C@H](C)C(=O)N[C@H](CCCCN)C(=O)N[C@H](CC(C)C)C(=O)N[C@H](C)C(=O)N[C@H](CCCCN)C(=O)NCC(=O)NCC(=O)N[C@H]1CSSC[C@@H](C(=O)O)NC(=O)[C@H](C)NC(=O)[C@H](CC(N)=O)NC(=O)[C@H](CCC(=O)O)NC(=O)[C@H](CC(=O)O)NC(=O)[C@H](Cc2ccc(O)cc2)NC(=O)[C@H](Cc2c[nH]c3ccccc23)NC(=O)[C@H](CCCNC(=N)N)NC1=O [35-AP peptide, D (KLAKLAKKLAKLAK)-GG-CRWYDENAC] (H-[dK][dL][dA][dK][dL][dA][dK][dK][dL][dA][dK][dL][dA][dK]GGCRWYDENAC-OH; disulfide 17-25 (inferred); N-terminus and C-terminus assumed)
cell apoptosis in HONE1 (HONE1): also led to cell apoptosis | cell apoptosis in CNE1 (CNE1): also led to cell apoptosis | cell apoptosis in SUNE1 (SUNE1): also led to cell apoptosis | cell apoptosis in 5-8F (5-8F): also led to cell apoptosis | apoptosis in CNE2 (CNE2 [1]): can significantly promote the apoptosis | tumor volume (CNE2 cells [2]): reduced the tumor volume markedly | cleaved Caspase3 activation (CNE2 [3]): cleaved Caspase3 was activated

Biotin-CRWYDENAC (cysteine pairing not given here) [Biotin-35 peptide]
penetration into CNE2 (cellular immunofluorescence) (CNE2 cells [4]): is able to penetrate into CNE2

CRWYDENAC (disulfide 1-9) [35 peptide]
blocking of phage 35 binding to CNE2 [5]: prevents phage 35 from binding to CNE2 in a dose-dependent manner | apoptosis in CNE2 (CNE2 [1]): cannot induce the apoptosis in CNE2

Cy5-CRWYDENAC (disulfide 1-9) [Cy5-35 peptide]
breast cancer imaging (MDA-MB-231): can also be applied in breast cancer imaging | binding to CNE2 cells (flow cytometry) [6]: binds to CNE2 cells in a dose-dependent manner | penetration into CNE2 (flow cytometry) [7]: penetrates into CNE2 in a dose-dependent manner | enrichment in tumor (NIR imaging) (nasopharyngeal carcinoma; FIG. 4A): significantly enriched in tumor | residual peptide in lung (NIR imaging) (nasopharyngeal carcinoma; FIG. 4B): certain residual peptides in lung | intensity of fluorescence in tumor versus other organs (nasopharyngeal carcinoma; FIG. 4C): significantly stronger than that in other organs | co-localization with vessel marker CD31 in tumor [8, 9]: co-localized with vessel marker CD31 | penetration of tumor vessels and tumor cells [8, 9]: part of Cy5-35 peptides penetrated the tumor vessels and tumor cells | co-localization with vessel marker CD31 in tumor ([8]; half an hour after intravenous injection, FIG. 3A): co-localized with vessel marker CD31

D (KLAKLAKKLAKLAK) (D-amino acids) [AP peptide, reference compound]
apoptosis in CNE2 (CNE2 [1]): cannot induce the apoptosis in CNE2

D (KLAKLAKKLAKLAK-GG-CRWYDENAC) (KLAKLAKKLAKLAKGGCRWYDENAC; D-amino acids) [(35-AP)D]
apoptosis in CNE2 (CNE2 [1]): also activated the apoptosis of CNE2
